The values that follow come from patent US5028587A, “Mixed crystals of insulin and insulin derivatives” (Hoechst Aktiengesellschaft, priority 1987, dated 1991).

A short description of data set [1]: specific activity of the insulin used. The following applies: specific activity of the substance used for crystallization.
The nature of data set [2]: isoelectric point by isoelectric focusing. Particulars: pH. The class given is physicochemical. An excerpt:
It is common to all these insulin derivatives that the additional positive charge(s) which is(are) located on the surface of the molecule confer on the molecule an isoelectric point which is displaced into the neutral range. Depending on the derivative, the isoelectric points measured by isoelectric focusing are from about 5.8 to about 8.5, in particular about 6.2 to about 8.2. This means that the derivatives are less soluble in the neutral range than is unmodified insulin, whose isoelectric point, and thus whose region of maximum insolubility, is at a pH of about 5.4, whereas it is normally in dissolved form in the neutral range.

The conditions of data set [3]: cited from earlier work.

Take Arg2 -(B31-32) human insulin: the activity in data set [1] amounted to 27 I.U./mg.

For Arg-B31 human insulin, in data set [1], the activity is 27 I.U./mg.

On to Human insulin, for which the activity in data set [1] came to 27 I.U./mg. For the substance insulin [unmodified insulin], the isoelectric point result in data set [2] is given as “about 5.4”. The in vivo half-life entry in data set [3] was “about 7 minutes”.
